In PubChem BioAssay (NCI):
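Five compound concentrations were applied to cells in 96-well plates for 48 hours; endpoints were derived by simple linear interpolation of the resulting dose-response curve. Abbreviation: GI50, concentration required for 50% inhibition of growth. TGI: total growth inhibition.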

Columns and labels:
Test in all cases: NCI anticancer screen, dose series, 48 h
786-0 renal = system: 786-0 renal
A498 renal = system: A498 renal
A549 NSCLC = system: A549 NSCLC
ACHN renal = system: ACHN renal
BT-549 breast = system: BT-549 breast
CAKI-1 renal = system: CAKI-1 renal
CCRF-CEM leukemia = system: CCRF-CEM leukemia
COLO 205 colon = system: COLO 205 colon
DU-145 prostate = system: DU-145 prostate
EKVX NSCLC = system: EKVX NSCLC
HCC-2998 colon = system: HCC-2998 colon
HCT-116 colon = system: HCT-116 colon
HCT-15 colon = system: HCT-15 colon
HL-60(TB) leukemia = system: HL-60(TB) leukemia
HOP-62 NSCLC = system: HOP-62 NSCLC
HOP-92 NSCLC = system: HOP-92 NSCLC
HS 578T breast = system: HS 578T breast
HT29 colon = system: HT29 colon
IGROV1 ovarian = system: IGROV1 ovarian
K-562 leukemia = system: K-562 leukemia
KM12 colon = system: KM12 colon
LOX IMVI melanoma = system: LOX IMVI melanoma
M14 melanoma = system: M14 melanoma
MALME-3M melanoma = system: MALME-3M melanoma
MCF7 breast = system: MCF7 breast
MDA-MB-231 breast = system: MDA-MB-231 breast
MDA-MB-435 = system: MDA-MB-435
MOLT-4 leukemia = system: MOLT-4 leukemia
NCI-H226 lung = system: NCI-H226 lung

CCCN(CCC)c1ccc(/C=N/NC(=O)c2cccnc2)c(Cl)c1
GI50 (786-0 renal): 11.6 µM
TGI (786-0 renal): 29.1 µM
GI50 (A498 renal): 0.161 µM
TGI (A498 renal): 0.318 µM
GI50 (A549 NSCLC): 6.84 µM
TGI (A549 NSCLC): 36.1 µM
GI50 (ACHN renal): 23.3 µM
TGI (ACHN renal): > 88.1 µM
GI50 (BT-549 breast): 12.9 µM
TGI (BT-549 breast): 33.4 µM
GI50 (CAKI-1 renal): 12.1 µM
TGI (CAKI-1 renal): 58 µM
GI50 (CCRF-CEM leukemia): 15 µM
TGI (CCRF-CEM leukemia): > 100 µM
GI50 (COLO 205 colon): 6.29 µM
TGI (COLO 205 colon): 22.3 µM
GI50 (DU-145 prostate): 17.8 µM
TGI (DU-145 prostate): 49 µM
GI50 (EKVX NSCLC): 17 µM
TGI (EKVX NSCLC): 71.4 µM
GI50 (HCC-2998 colon): 7.74 µM
TGI (HCC-2998 colon): 25.7 µM
GI50 (HCT-116 colon): 2.88 µM
TGI (HCT-116 colon): 16 µM
GI50 (HCT-15 colon): 7.87 µM
TGI (HCT-15 colon): 34.4 µM
GI50 (HL-60(TB) leukemia): 4.91 µM
TGI (HL-60(TB) leukemia): 32.4 µM
GI50 (HOP-62 NSCLC): 10.3 µM
TGI (HOP-62 NSCLC): 28.6 µM
GI50 (HOP-92 NSCLC): 8.95 µM
TGI (HOP-92 NSCLC): 25.2 µM
GI50 (HS 578T breast): 14.3 µM
TGI (HS 578T breast): 47.3 µM
GI50 (HT29 colon): 4.71 µM
TGI (HT29 colon): 17.8 µM
GI50 (IGROV1 ovarian): 1.21 µM
TGI (IGROV1 ovarian): 15.6 µM
GI50 (K-562 leukemia): 3.75 µM
TGI (K-562 leukemia): > 100 µM
GI50 (KM12 colon): 7.19 µM
TGI (KM12 colon): 25.7 µM
GI50 (LOX IMVI melanoma): 11.2 µM
TGI (LOX IMVI melanoma): 24.9 µM
GI50 (M14 melanoma): 8.71 µM
TGI (M14 melanoma): 23.2 µM
GI50 (MALME-3M melanoma): 15 µM
TGI (MALME-3M melanoma): 36.1 µM
GI50 (MCF7 breast): 2.59 µM
TGI (MCF7 breast): 21.1 µM
GI50 (MDA-MB-231 breast): 12.4 µM
TGI (MDA-MB-231 breast): 28.5 µM
GI50 (MDA-MB-435): 2.68 µM
TGI (MDA-MB-435): 12.4 µM
GI50 (MOLT-4 leukemia): 12.9 µM
TGI (MOLT-4 leukemia): 46.2 µM
GI50 (NCI-H226 lung): 0.241 µM
TGI (NCI-H226 lung): 0.707 µM
